Earlier results as cited in publication PMC11249953, “c-KIT inhibitors reduce pathology and improve behavior in the Tg(SwDI) model of Alzheimer’s disease” (Life Science Alliance, 2024).
Like-named read-outs stand apart in the source and are kept apart here.

Key:
APPswe/PSEN1dE9 mice = system: APPswe/PSEN1dE9 mice; set-up: method as in Li et al, 2020; settings: chronic oral treatment, ref Li et al, 2020; cited from earlier work
c-KIT = system: c-KIT; set-up: method as in Dubreuil et al, 2009; settings: ref Dubreuil et al, 2009; cited from earlier work
[1] = ref Li et al, 2020, cited from earlier work

**Q.** For Cc1ccc(NC(=O)c2ccc(CN3CCN(C)CC3)cc2)cc1Nc1nc(-c2cccnc2)cs1 [Masitinib], which amyloid-β and neuroinflammation (APPswe/PSEN1dE9 mice) is on record?
**A.** not reducing amyloid-β or attenuating neuroinflammation

**Q.** And the spatial learning performance (APPswe/PSEN1dE9 mice)?
**A.** reverse spatial learning performance

**Q.** And the brain penetrance [1]?
**A.** poor brain penetrance

**Q.** What about the brain penetrance ([1]; listed as masitinib) of the same compound?
**A.** poor brain penetrant
